This passage reports Activity and Kd results from ChEMBL document CHEMBL5625276, “Antascomicin B stabilizes FKBP51-Akt1 complexes as a molecular glue” (Bioorg Med Chem Lett, 2024).

pKd: −log10 of the molar value. Activity calls are given as the source filed them. The calls are words filed in the database; no cut-off is given here.

In assay [1] the test system is HEK293T. Put plainly: Stabilization of FLAG-tagged human HSP90 binding incompetent FKBP51 K352A/R356A mutant/human Akt complex in HEK293T cells assessed as increase in Akt co-immunoprecipitation at 1 uM by Western blot analysis. The class given is cell-based.
For assay [2], the system named is HEK293T. Put plainly: Stabilization of FLAG tagged human FKBP51 K52pBpa incorporation mutant/human Akt complex in HEK293T cells assessed as increase in Akt1 coimmunoprecipitation at 1 uM in absence of UV irradiation by immunoprecipitation based Western blot analysis. Type of assay: cell-based.
In assay [3] the test system is HEK293T. Briefly: Stabilization of FLAG tagged human FKBP51 P120pBpa incorporation mutant/human Akt complex in HEK293T cells assessed as increase in Akt1 coimmunoprecipitation at 1 uM in absence of UV irradiation by immunoprecipitation based Western blot analysis. The class given is cell-based. On the technique in general: A western blot detects proteins with antibodies after separation by electrophoresis.

The test system of assay [4] is HEK293T. Put plainly: Stabilization of FLAG tagged human FKBP51 P120pBpa incorporation mutant/human Akt complex in HEK293T cells assessed as increase in photocrosslinking at 1 uM pretreated with compound followed by UV irradiation for 30 mins by immunoprecipitation based Western blot analysis. Type of assay: cell-based.
For assay [5], the target named is T1, Peptidyl-prolyl cis-trans isomerase FKBP5 (Homo sapiens, UniProt Q13451).
T1 sequence (Q13451 whole entry): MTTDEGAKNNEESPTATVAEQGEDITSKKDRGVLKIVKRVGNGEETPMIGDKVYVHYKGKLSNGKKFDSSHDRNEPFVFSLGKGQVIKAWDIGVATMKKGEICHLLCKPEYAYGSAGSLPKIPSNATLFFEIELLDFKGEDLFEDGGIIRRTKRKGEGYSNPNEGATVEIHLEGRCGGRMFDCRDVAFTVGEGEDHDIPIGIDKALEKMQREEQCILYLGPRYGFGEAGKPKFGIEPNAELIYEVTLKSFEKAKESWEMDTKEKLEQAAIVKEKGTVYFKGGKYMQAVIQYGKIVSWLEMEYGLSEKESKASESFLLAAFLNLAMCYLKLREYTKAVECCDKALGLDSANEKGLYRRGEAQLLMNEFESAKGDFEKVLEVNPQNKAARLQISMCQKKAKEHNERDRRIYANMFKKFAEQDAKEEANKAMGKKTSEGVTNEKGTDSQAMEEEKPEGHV
Put plainly: Binding affinity to human FKBP51 FK1 domain expressed in Escherichia coli BL21 DE3 Gold assessed as dissociation constant incubated for 30 mins by competitive fluorescence polarization assay. (In general: In fluorescence polarisation assays a small probe gives low polarisation when free and higher when bound to something large.)

The subject of assay [6] is HEK293T. Briefly: Stabilization of FLAG-tagged human FKBP51 K52pBpa incorporation mutant/human Akt T308A mutant in HEK293T cells assessed as photocrosslinking adduct formation at 1 uM pretreated with compound followed by UV irradiation for 30 mins by immunoprecipitation based Western blot analysis. The class given is cell-based.
For assay [7], the system named is HEK293T. Put plainly: Stabilization of FLAG-tagged human FKBP51 K52pBpa incorporation mutant/human Akt S473A mutant in HEK293T cells assessed as photocrosslinking adduct formation at 1 uM pretreated with compound followed by UV irradiation for 30 mins by immunoprecipitation based Western blot analysis. The class given is cell-based.
In assay [8] the test system is HEK293T. Briefly: Stabilization of FLAG tagged human FKBP51 K52pBpa incorporation mutant/human Akt complex in HEK293T cells assessed as increase in photocrosslinking at 1 uM pretreated with compound followed by UV irradiation for 30 mins by immunoprecipitation based Western blot analysis. The class given is cell-based.
The test system of assay [9] is HEK293T. Briefly: Stabilization of FLAG-tagged human FKBP51 K52pBpa incorporation mutant/human Akt T308D mutant in HEK293T cells assessed as photocrosslinking adduct formation at 1 uM pretreated with compound followed by UV irradiation for 30 mins by immunoprecipitation based Western blot analysis. Type of assay: cell-based.
The target of assay [10] is Peptidyl-prolyl cis-trans isomerase FKBP1A (Homo sapiens, UniProt P62942). Briefly: Binding affinity to human FKBP12 expressed in Escherichia coli BL21 DE3 Gold assessed as dissociation constant incubated for 30 mins by competitive fluorescence polarization assay.
Assay [11] concerns the target Peptidyl-prolyl cis-trans isomerase FKBP1B (Homo sapiens, UniProt P68106). Briefly: Binding affinity to human FKBP12.6 expressed in Escherichia coli BL21 DE3 Gold assessed as dissociation constant incubated for 30 mins by competitive fluorescence polarization assay.
Assay [12] has as its system HEK293T. Briefly: Stabilization of FLAG tagged human FKBP51 E75pBpa incorporation mutant/human Akt complex in HEK293T cells assessed as increase in photocrosslinking pretreated with compound followed by UV irradiation by immunoprecipitation based Western blot analysis. Type of assay: cell-based.
For assay [13], the system named is HEK293T. Briefly: Stabilization of FLAG-tagged human FKBP51 K52pBpa incorporation mutant/human Akt S473D mutant in HEK293T cells assessed as photocrosslinking adduct formation at 1 uM pretreated with compound followed by UV irradiation for 30 mins by immunoprecipitation based Western blot analysis. Type of assay: cell-based.
Assay [14] has as its system HEK293T. Put plainly: Stabilization of FLAG-tagged wild type human FKBP51/human Akt complex in HEK293T cells assessed as increase in Akt co-immunoprecipitation at 1 uM by Western blot analysis. Type of assay: cell-based.
Assay [15] concerns HEK293T. Put plainly: Stabilization of FLAG-tagged human FKBP51 K52pBpa incorporation mutant/human Akt T308A/S473A mutant in HEK293T cells assessed as photocrosslinking adduct formation at 1 uM pretreated with compound followed by UV irradiation for 30 mins by immunoprecipitation based Western blot analysis. The class given is cell-based.
The test system of assay [16] is HEK293T. Put plainly: Stabilization of FLAG-tagged human FKBP51 K52pBpa incorporation mutant/wild type Akt in HEK293T cells assessed as photocrosslinking adduct formation at 1 uM pretreated with compound followed by UV irradiation for 30 mins by immunoprecipitation based Western blot analysis. Type of assay: cell-based.
Assay [17] deals with HEK293T. Briefly: Stabilization of FLAG tagged human FKBP51 N74pBpa incorporation mutant/human Akt complex in HEK293T cells assessed as increase in photocrosslinking pretreated with compound followed by UV irradiation by immunoprecipitation based Western blot analysis. The class given is cell-based.
In assay [18] the target is T2, Peptidyl-prolyl cis-trans isomerase FKBP4 (Homo sapiens, UniProt Q02790).
T2 sequence (Q02790 whole entry): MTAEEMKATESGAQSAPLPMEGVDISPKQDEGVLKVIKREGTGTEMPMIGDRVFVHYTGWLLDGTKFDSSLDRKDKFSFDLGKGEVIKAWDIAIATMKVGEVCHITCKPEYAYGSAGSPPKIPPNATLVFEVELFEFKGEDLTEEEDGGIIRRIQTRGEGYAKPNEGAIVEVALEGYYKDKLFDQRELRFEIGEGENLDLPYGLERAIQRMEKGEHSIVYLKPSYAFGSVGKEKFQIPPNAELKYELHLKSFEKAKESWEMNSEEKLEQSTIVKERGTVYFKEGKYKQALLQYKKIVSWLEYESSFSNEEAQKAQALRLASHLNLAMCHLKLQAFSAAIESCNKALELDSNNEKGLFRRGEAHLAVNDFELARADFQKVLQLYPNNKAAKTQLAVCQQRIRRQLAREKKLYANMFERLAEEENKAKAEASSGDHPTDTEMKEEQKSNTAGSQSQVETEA
Briefly: Binding affinity to human FKBP52 FK1 domain expressed in Escherichia coli BL21 DE3 Gold assessed as dissociation constant incubated for 30 mins by competitive fluorescence polarization assay.

The subject of assay [19] is HEK293T. Briefly: Stabilization of FLAG tagged human FKBP51 P120pBpa incorporation mutant/human Akt complex in HEK293T cells assessed as induction of photocrosslinking adduct formation at 1 uM pretreated with compound followed by UV irradiation for 30 mins by immunoprecipitation based Western blot analysis. The class given is cell-based.

Sequence of Peptidyl-prolyl cis-trans isomerase FKBP1B (P68106 whole entry): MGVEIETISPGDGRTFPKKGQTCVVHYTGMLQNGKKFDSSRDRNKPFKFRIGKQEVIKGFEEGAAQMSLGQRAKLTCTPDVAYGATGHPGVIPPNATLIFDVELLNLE
Sequence of Peptidyl-prolyl cis-trans isomerase FKBP1A (P62942 whole entry): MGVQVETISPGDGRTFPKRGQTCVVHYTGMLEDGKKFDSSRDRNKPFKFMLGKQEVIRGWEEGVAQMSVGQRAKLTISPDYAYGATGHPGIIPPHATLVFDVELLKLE

On to `C[C@@H]1/C=C/CC/C=C/C(=O)[C@H](C)[C@@H]2CC[C@@H](C)[C@@](O)(O2)C(=O)C(=O)N2CCCC[C@H]2C(=O)O[C@H]([C@H](C)C[C@@H]2CC[C@@H](O)[C@H](O)[C@H]2O)CC1`, for which the outcome in assay [1], in [2], in assay [3], in [4], in assay [6] and in assay [7] was Active. Also, the outcome in assay [8], in [9], in assay [12], in assay [13], in assay [14] and in assay [15] was Active. In addition, the result in assay [16], in assay [17] and in [19] was Active. Also, the negative-log Kd (pKd) was 8.17 in assay [5], 10.52 in assay [10], 9.42 in assay [11] and 8.92 in [18].

For `CO[C@H]1C[C@@H]2CC[C@@H](C)[C@@](O)(O2)C(=O)C(=O)N2CCCC[C@H]2C(=O)O[C@H]([C@H](C)C[C@@H]2CC[C@@H](O)[C@H](OC)C2)CC(=O)[C@H](C)/C=C(\C)[C@@H](O)[C@@H](OC)C(=O)[C@H](C)C[C@H](C)/C=C/C=C/C=C/1C` [SIROLIMUS], the negative-log Kd (pKd) was 8.07 in assay [5] and 7.92 in assay [18]. In addition, the result in assay [19] was inactive.

In the case of `C=CC[C@@H]1/C=C(\C)C[C@H](C)C[C@H](OC)[C@H]2O[C@@](O)(C(=O)C(=O)N3CCCC[C@H]3C(=O)O[C@H](/C(C)=C/[C@@H]3CC[C@@H](O)[C@H](OC)C3)[C@H](C)[C@@H](O)CC1=O)[C@H](C)C[C@@H]2OC` [TACROLIMUS ANHYDROUS], in assay [5], the negative logarithm of the Kd (pKd) is 7.12. Moreover, the outcome in [19] was inactive.

As usually defined, the pKd is the negative decadic logarithm of the Kd, by convention in mol/L.
